Assay results published in patent publication US6737383B1, “Herbicidal oxadiazolidines” (priority 1999, dated 2004).

How the values were obtained:
winter wheat [1] = test: Test E winter wheat; type: in vivo, Triticum aestivum; conditions: Preemergence
wild oat = test: Test E wild oat; type: in vivo, Avena fatua; conditions: Preemergence
wheat = test: Test B pre/postemergence wheat; type: in vivo, Triticum aestivum; conditions: for Wheat plant response rating (0 to 10 scale): 0 is no effect; for Plant response rating, Wheat: Rate 250 g/ha
In short: (§1)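 Response is a visual 0-to-10 score relative to untreated plants, where 0 means no effect and 10 means complete control, taken twelve to sixteen days after application. Treatments went onto soil at planting and onto foliage of 1- to 4-leaf plants, using a surfactant-containing non-phytotoxic solvent.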

Italian ryegrass = test: Test E Italian ryegrass; type: in vivo, Lolium multiflorum; conditions: Preemergence
morningglory = test: Test B pre/postemergence morningglory; type: in vivo, Ipomoea hederacea
In short: as §1

blackgrass = test: Test E blackgrass; type: in vivo, Alopecurus myosuroides; conditions: Preemergence
winter wheat [2] = test: Test E winter wheat; type: in vivo, Triticum aestivum; conditions: Postemergence
In short: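 Plants were grown under normal greenhouse practice; for postemergence, in sandy loam soil mixed 60:40 with potting mix, treated at the 1- to 4-leaf stage. The compound was in a non-phytotoxic solvent carrying a surfactant. After roughly 21 to 28 days plants were scored visually against untreated plants.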

duck salad = test: Test B flood test duck salad; type: in vivo, Heteranthera limosa
In short: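 Plants were grown to the 2-leaf stage before treatment with test chemical, then held in a greenhouse for twelve to sixteen days. Injury was visually rated against untreated controls on a 0–10 scale, where 0 is no effect and 10 is complete control.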

winter barley = test: Test E winter barley; type: in vivo, Hordeum vulgare; conditions: Preemergence
common pursiane = test: Test D common purslane; type: in vivo, Portulaca oleracea; conditions: Preemergence, 0 to 100 scale
In short: (§2)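 Herbicide screen in the greenhouse. A non-phytotoxic solvent mixture with surfactant carried the test chemical; in pre-emergence tests it went onto the soil of pots seeded no more than a day earlier. Injury was scored by eye 14 to 21 days after application, 0 to 100.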

rape = test: Test B pre/postemergence rape; type: in vivo, Brassica napus
In short: as §1

common ragweed = test: Test D common ragweed; type: in vivo, Ambrosia elatior; conditions: Preemergence, 0 to 100 scale
In short: as §2

green foxtail = test: Test E green foxtail; type: in vivo, Setaria viridis; conditions: Preemergence
[3] = Rate 125 g/ha, 0 to 100 scale (0 no effect, 100 complete control)
[4] = Rate 500 g/ha, 0 to 100 scale where 0 is no effect and 100 is complete control
[5] = Postemergence, Rate 125 g/ha, scale of 0 to 10 where 0 is no effect and 10 is complete control
[6] = Preemergence, Rate 62 g/ha, scale 0 to 10 (0 no effect, 10 complete control)
[7] = Preemergence, Rate 125 g/ha, 10 is complete control
[8] = Preemergence, scale of 0 to 10 where 0 is no effect and 10 is complete control
[9] = Preemergence, Rate 500 g/ha, scale 0 to 10 (0 no effect, 10 complete control)
[10] = Rate 62 g/ha, Postemergence, scale of 0 to 10 where 0 is no effect and 10 is complete control
[11] = Postemergence, scale 0 to 10, 0 is no effect, 10 is complete control
[12] = Rate 500 g/ha, Postemergence, scale 0 to 10, 0 no effect, 10 complete control
[13] = Postemergence, Rate 250 g/ha, scale 0 to 10, 0 no effect, 10 complete control
[14] = Preemergence, Rate 125 g/ha, scale 0 to 10 (0 no effect, 10 complete control)
[15] = Preemergence, Rate 250 g/ha, scale of 0 to 10 where 0 is no effect and 10 is complete control
[16] = Rate 250 g/ha, 0 to 100 scale (0 no effect, 100 complete control)
[17] = Rate 500 g/ha, 0 to 100 scale, 0 no effect, 100 complete control
[18] = Postemergence (flood test species), Rate 125 g/ha, scale of 0 to 10 where 0 is no effect and 10 is complete control
[19] = Rate 62 g/ha, Postemergence section, flood test species, scale of 0 to 10 where 0 is no effect and 10 is complete control
[20] = Rate 500 g/ha, listed under Postemergence (flood test species), scale 0 to 10, 0 no effect, 10 complete control
[21] = flood test, listed under Postemergence, Rate 250 g/ha, scale 0 to 10, 0 no effect, 10 complete control
[22] = Rate 16 g/ha, 0 no injury, 100 complete control
[23] = Rate 32 g/ha, 0 no injury, 100 complete control
[24] = Rate 64 g/ha, 0 no injury, 100 complete control
[25] = Rate 125 g/ha, 0 no injury, 100 complete control
[26] = Rate 62 g/ha, 0 to 100 scale, 0 no effect, 100 complete control

## C=CCn1c(=O)on(C(=O)N(c2ccc(Cl)cc2)C(C)C)c1=O [Compound 105]
Winter wheat [1]; [3]
  Plant response rating, Wheat (winter): 10
Winter wheat [1]; Rate 250 g/ha, 0 to 100 scale
  Plant response rating, Wheat (winter): 0
Winter wheat [1]; [4]
  Plant response rating, Wheat (winter): 10
Wild oat; [3]
  Plant response rating, Wild oat: 30
Wild oat; [4]
  Plant response rating, Wild oat: 55
wheat; [5]
  Wheat plant response rating: 0
wheat; [6]
  Wheat plant response rating: 0
wheat; [7]
  Wheat plant response rating (0 to 10 scale): 0
wheat; [8]
  Plant response rating, Wheat: 0
wheat; [9]
  Wheat plant response rating: 2
wheat; [10]
  Wheat plant response rating: 0
wheat; [11]
  Plant response rating, Wheat: 0
wheat; [12]
  Wheat plant response rating: 2
Italian ryegrass; [3]
  Plant response rating, I. Ryegrass: 30
Italian ryegrass; Rate 250 g/ha, 0 to 100 scale
  Plant response rating, I. Ryegrass: 30
Italian ryegrass; [4]
  Plant response rating, I. Ryegrass: 85
morningglory; [5]
  Morningglory plant response rating: 2
morningglory; [13]
  Morningglory plant response rating: 3
morningglory; [6]
  Morningglory plant response rating: 0
morningglory; [14]
  Plant response rating, Morningglory: 0
morningglory; [15]
  Plant response rating, Morningglory: 0
morningglory; [9]
  Morningglory plant response rating: 0
morningglory; [12]
  Morningglory plant response rating: 4
blackgrass; [3]
  Plant response rating, Blackgrass: 20
blackgrass; Rate 250 g/ha, 0 to 100 scale
  Plant response rating, Blackgrass: 50
blackgrass; [4]
  Plant response rating, Blackgrass: 50
Winter wheat [2]; Rate 125 g/ha, 0 to 100 scale
  Plant response rating, Wheat (winter): 10
Winter wheat [2]; [16]
  Plant response rating, Wheat (winter): 10
Winter wheat [2]; [17]
  Plant response rating, Wheat (winter): 20
Duck salad; [18]
  Ducksalad plant response rating: 0
Duck salad; [19]
  Ducksalad plant response rating: 0
Duck salad; Rate 250 g/ha, headed Pre-emergence (flood test species), scale 0 to 10 (0 no effect, 10 complete control)
  Ducksalad plant response rating: 0
Duck salad; Rate 500 g/ha, headed Pre-emergence (flood test species), scale 0 to 10 (0 no effect, 10 complete control)
  Plant response rating, Ducksalad: 0
Duck salad; [20]
  Ducksalad plant response rating: 0
Duck salad; Rate 1000 g/ha, Pre-emergence (as headed), scale 0 to 10
  Ducksalad plant response rating: 0
Duck salad; Rate 2000 g/ha, Pre-emergence (as headed), scale 0 to 10
  Ducksalad plant response rating: 0
Duck salad; [21]
  Ducksalad plant response rating: 0
Winter barley; [3]
  Plant response rating, Barley (winter): 0
Winter barley; Rate 250 g/ha, 0 to 100 scale
  Plant response rating, Barley (winter): 0
Winter barley; [4]
  Plant response rating, Barley (winter): 10
Common pursiane; [22]
  Plant response rating, C. purslane: 0
Common pursiane; [23]
  Plant response rating, C. purslane: 0
Common pursiane; [24]
  Plant response rating, C. purslane: 0
Common pursiane; [25]
  Plant response rating, C. purslane: 0
Common pursiane; Rate 250 g/ha
  Plant response rating, C. purslane: 0
Common pursiane; Rate 500 g/ha
  Plant response rating, C. purslane: 0
rape; [5]
  Rape plant response rating: 0
rape; [13]
  Rape plant response rating: 0
rape; [6]
  Rape plant response rating: 0
rape; [14]
  Plant response rating, Rape: 1
rape; [15]
  Plant response rating, Rape: 4
rape; [9]
  Rape plant response rating: 6
rape; [10]
  Rape plant response rating: 0
rape; [12]
  Rape plant response rating: 2
Common ragweed; [22]
  Plant response rating, C. ragweed: 0
Common ragweed; [23]
  Plant response rating, C. ragweed: 0
Common ragweed; [24]
  Plant response rating, C. ragweed: 0
Common ragweed; [25]
  Plant response rating, C. ragweed: 0
Common ragweed; Rate 250 g/ha
  Plant response rating, C. ragweed: 0
Common ragweed; Rate 500 g/ha
  Plant response rating, C. ragweed: 0
Green foxtail; [3]
  Plant response rating, Green foxtail: 55
Green foxtail; Rate 250 g/ha, 0 to 100 scale
  Plant response rating, Green foxtail: 90
Green foxtail; [4]
  Plant response rating, Green foxtail: 100

## CC(C)N(C(=O)n1oc(=O)n(C(C)C)c1=O)c1ccc(Cl)cc1 [Compound 114]
Winter wheat [1]; [26]
  Plant response rating, Wheat (winter): 0
Winter wheat [1]; [3]
  Plant response rating, Wheat (winter): 10
Winter wheat [1]; Rate 250 g/ha, 0 to 100 scale
  Plant response rating, Wheat (winter): 0
Winter wheat [1]; [4]
  Plant response rating, Wheat (winter): 0
Wild oat; [26]
  Plant response rating, Wild oat: 20
Wild oat; [3]
  Plant response rating, Wild oat: 40
Wild oat; [4]
  Plant response rating, Wild oat: 70
wheat; [5]
  Wheat plant response rating: 0
wheat; [6]
  Wheat plant response rating: 0
wheat; [7]
  Wheat plant response rating (0 to 10 scale): 0
wheat; [8]
  Plant response rating, Wheat: 2
wheat; [9]
  Wheat plant response rating: 8
wheat; [10]
  Wheat plant response rating: 0
wheat; [11]
  Plant response rating, Wheat: 0
wheat; [12]
  Wheat plant response rating: 0
Italian ryegrass; [26]
  Plant response rating, I. Ryegrass: 20
Italian ryegrass; [3]
  Plant response rating, I. Ryegrass: 30
Italian ryegrass; Rate 250 g/ha, 0 to 100 scale
  Plant response rating, I. Ryegrass: 100
Italian ryegrass; [4]
  Plant response rating, I. Ryegrass: 95
morningglory; [5]
  Morningglory plant response rating: 4
morningglory; [13]
  Morningglory plant response rating: 4
morningglory; [6]
  Morningglory plant response rating: 0
morningglory; [14]
  Plant response rating, Morningglory: 0
morningglory; [15]
  Plant response rating, Morningglory: 0
morningglory; [9]
  Morningglory plant response rating: 1
morningglory; [10]
  Morningglory plant response rating: 1
morningglory; [12]
  Morningglory plant response rating: 8
blackgrass; [26]
  Plant response rating, Blackgrass: 30
blackgrass; [3]
  Plant response rating, Blackgrass: 50
blackgrass; Rate 250 g/ha, 0 to 100 scale
  Plant response rating, Blackgrass: 50
blackgrass; [4]
  Plant response rating, Blackgrass: 100
Winter wheat [2]; Rate 62 g/ha, 0 to 100 scale
  Plant response rating, Wheat (winter): 0
Winter wheat [2]; Rate 125 g/ha, 0 to 100 scale
  Plant response rating, Wheat (winter): 10
Winter wheat [2]; [16]
  Plant response rating, Wheat (winter): 60
Winter wheat [2]; [17]
  Plant response rating, Wheat (winter): 20
Duck salad; [18]
  Ducksalad plant response rating: 0
Duck salad; [19]
  Ducksalad plant response rating: 0
Duck salad; [20]
  Ducksalad plant response rating: 0
Duck salad; [21]
  Ducksalad plant response rating: 0
Winter barley; [26]
  Plant response rating, Barley (winter): 0
Winter barley; [3]
  Plant response rating, Barley (winter): 5
Winter barley; Rate 250 g/ha, 0 to 100 scale
  Plant response rating, Barley (winter): 10
Winter barley; [4]
  Plant response rating, Barley (winter): 40
Common pursiane; [25]
  Plant response rating, C. purslane: 0
rape; [5]
  Rape plant response rating: 3
rape; [13]
  Rape plant response rating: 3
rape; [6]
  Rape plant response rating: 0
rape; [14]
  Plant response rating, Rape: 3
rape; [15]
  Plant response rating, Rape: 6
rape; [9]
  Rape plant response rating: 10
rape; [10]
  Rape plant response rating: 3
rape; [12]
  Rape plant response rating: 7
Common ragweed; [25]
  Plant response rating, C. ragweed: 0
Green foxtail; [26]
  Plant response rating, Green foxtail: 45
Green foxtail; [3]
  Plant response rating, Green foxtail: 100
Green foxtail; Rate 250 g/ha, 0 to 100 scale
  Plant response rating, Green foxtail: 100
Green foxtail; [4]
  Plant response rating, Green foxtail: 85
